The source of these data is patent US20260207722A1, “COMBINATION FOR TREATMENT OF AUTOIMMUNE DISEASES” (Bonsai Biotherapeutics AB, priority 2023, published 2026).

In this experiment the test system is experimental autoimmune myasthenia gravis (EAMG). Put plainly: EAMG clinical score, rats treated with TOL2 and/or diclofenac (Example 2). To be noted: treatment 40 days after EAMG induction; diclofenac 10 mg/kg ip; TOL2 500 μg iv alone, 250 μg iv in the combination; vs PBS-treated controls; FIG. 3A. In kind it is in vivo, rat.

Take `O=C(O)Cc1ccccc1Nc1c(Cl)cccc1Cl` [diclofenac]: the EAMG score entry is “did not show any improvement”.
